# Results: BindingDB's records for doi:10.1021/jm00113a020 (Case Western Reserve University, 1991)
# pKi: −log10 of the molar value. Starred links: 1 amine or outer side, 2 acyl side, 3 side chain; linkers in the order of their positions; H or OH if unused. Residues, ends and D or L forms follow the SMILES beside them. Ethylenediamine = C(CN[*:2])N[*:1]; GABA = NCCCC(=O)O
# Assay: The compound was tested for binding activity towards Opioid receptor delta 1 in guinea pig brain membranes.
row,Compound,pKi
1,NCCCC(=O)NCCNC(=O)[C@H](Cc1ccccc1)NC(=O)CNC(=O)CNC(=O)[C@@H](N)Cc1ccc(O)cc1 (H-YGGF-{Ethylenediamine-GABA}),5.00
2,NCCCC(=O)NCCCN(CCCNC(=O)[C@H](Cc1ccccc1)NC(=O)CNC(=O)CNC(=O)[C@@H](N)Cc1ccc(O)cc1)C(=O)CCCN (HELM PEPTIDE1{Y.G.G.F.[NCCCC(=O)NCCCN(CCCN[*:1])C(=O)CCCN]}$$$$V2.0),5.07
3,NCCCC(=O)NCCN(CCNC(=O)[C@H](Cc1ccccc1)NC(=O)CNC(=O)CNC(=O)[C@@H](N)Cc1ccc(O)cc1)C(=O)CCCN (HELM PEPTIDE1{Y.G.G.F.[NCCCC(=O)NCCN(CCN[*:1])C(=O)CCCN]}$$$$V2.0),4.64
4,NCCCC(=O)NCCN(CCN(CCNC(=O)[C@H](Cc1ccccc1)NC(=O)CNC(=O)CNC(=O)[C@@H](N)Cc1ccc(O)cc1)C(=O)CCCN)C(=O)CCCN [4-Amino-N-[2-(4-amino-butyrylamino)-ethyl]-N-[2-((4-amino-butyryl)-{2-[2-(2-{2-[2-amino-3-(4-hydroxy-phenyl)-propionylamino]-acetylamino}-acetylamino)-3-phenyl-propionylamino]-ethyl}-amino)-ethyl]-butyramide] (HELM PEPTIDE1{Y.G.G.F.[NCCCC(=O)NCCN(CCN(CCN[*:1])C(=O)CCCN)C(=O)CCCN]}$$$$V2.0),< 5.00
5,CC[C@H](C)[C@H](NC(=O)[C@H](CCCN=C(N)N)NC(=O)[C@H](CCCN=C(N)N)NC(=O)[C@H](CC(C)C)NC(=O)[C@H](Cc1ccccc1)NC(=O)CNC(=O)CNC(=O)[C@@H](N)Cc1ccc(O)cc1)C(=O)N[C@@H](CCCN=C(N)N)C(=O)N1CCC[C@H]1C(=O)N[C@@H](CCCCN)C(=O)N[C@@H](CC(C)C)C(=O)N[C@@H](CCCCN)C(=O)O [Dynorphin A (1-13)],7.80
